Data reported in PMC12133982, “Predominant T-cell epitopes of SARS-CoV-2 restricted by multiple prevalent HLA-B and HLA-C allotypes in Northeast Asia” (Frontiers in Immunology, 2025).
Where two headings read alike, the source gives them in different places. Peptide text beside a SMILES is read from it.

Columns and labels:
[1] = target: HLA-C0302 (Homo sapiens, UniProt P10321, A176E/A330V/A97T/C25G/C350S/D114A/D33Y/E197K/L127V/L171W/L218V/M285V/M309V/M331V/P208H/Q277E/Q291P/R243W/R45H/S123Y/S297R/S48A/T118I/T187L/T329A/T363A/V319A); experiment: Competitive peptide binding assay, CIR-C0302; conditions: HMy2.CIR-C0302 cells, reference Cy5-[…], class from inhibition at 5 and 15 μM, flow cytometry MFI; read-out: Binding affinity with HLA-C0302
Experimental: (§1) Then, competitive peptide binding assays were performed.

[2] = target: HLA-C0102 (Homo sapiens, UniProt P10321, A176E/A330V/A35S/A97T/C350S/D114A/D33F/L171W/L180R/L218V/M285V/M309V/M331V/P208H/Q277E/Q291P/R121W/R243W/R30K/S123C/S140Y/S297R/T329A/T363A/V272M/V319A); experiment: Competitive peptide binding assay, CIR-C0102; conditions: for inhibition at 5 µM / inhibition at 15 µM: read-out: Inhibition % of Cy5-reference peptide binding
Experimental: as §1

[3] = target: HLA-C0702 (Homo sapiens, UniProt P10321); experiment: Competitive peptide binding assay, CIR-C0702
[4] = target: HLA-C0602 (Homo sapiens, UniProt P10321, A176E/A330V/C350S/L171W/L180W/L218V/M285V/M309V/M331V/N104K/P208H/Q277E/Q291P/R121W/S101N/S123Y/S297R/T329A/T363A/V319A/V328M); experiment: Competitive peptide binding assay, CIR-C0602
[5] = target: HLA-C0401 (Homo sapiens, UniProt P10321, A176E/A330V/A35S/A73E/C25G/C350S/D138N/D33S/E299K/L171W/L180R/L218V/M285V/M309V/M331V/N104K/P208H/Q277E/Q291P/R243W/R38W/S101N/S123F/S140F/S297R/S48A/T329A/T363A/V319A/V327M); experiment: Competitive peptide binding assay, CIR-C0401; conditions: HMy2.CIR-C0401 cells, reference Cy5-[…], class from inhibition at 5 and 15 μM, flow cytometry MFI; read-out: Binding affinity with HLA-C0401
Experimental: as §1

[6] = target: HLA-C0801 (Homo sapiens, UniProt P10321, A176T/A330V/A97T/C350S/D114A/D138N/D33Y/E201K/E299G/L171W/L218V/M285V/M309V/M331V/P208H/Q277E/Q291P/R59Q/S123Y/S140F/S297R/S48A/T329A/T363A/V319A/V328M); experiment: Competitive peptide binding assay, CIR-C0801; conditions: HMy2.CIR-C0801 cells, reference Cy5-[…], class from inhibition at 5 and 15 μM, flow cytometry MFI; read-out: Binding affinity with HLA-C0801
Experimental: as §1

[7] = target: HLA-C0304 (Homo sapiens, UniProt P10321, A176E/A330V/A97T/C25G/C350S/D114A/D33Y/E197K/L119I/L127V/L171W/L218V/M285V/M309V/M331V/P208H/Q277E/Q291P/R243W/R45H/S123Y/S140Y/S297R/S48A/T118I/T187L/T329A/T363A/V319A); experiment: Competitive peptide binding assay, CIR-C0304; conditions: HMy2.CIR-C0304 cells, reference Cy5-[…], class from inhibition at 5 and 15 μM, flow cytometry MFI; read-out: Binding affinity with HLA-C0304
Experimental: as §1

[8] = HMy2.CIR-C0102 cells, reference Cy5-[…], class from inhibition at 5 and 15 μM, flow cytometry MFI, read-out: Binding affinity with HLA-C0102

| SMILES | IC50 [1] [µM] | IC50 [2, 8] [µM] | IC50 [3] [µM] | IC50 [4] [µM] | IC50 [5] [µM] | inhibition at 5 µM [2] [%] | inhibition at 15 µM [2] [%] | IC50 [6] [µM] | IC50 [7] [µM] | IC50 [2] [µM] |
| --- | --- | --- | --- | --- | --- | --- | --- | --- | --- | --- |
| CC(C)[C@H](NC(=O)[C@H](CC(N)=O)NC(=O)[C@H](Cc1ccc(O)cc1)NC(=O)[C@H](C)NC(=O)[C@@H](N)CCCCN)C(=O)N[C@H](C(=O)N[C@@H](CCC(N)=O)C(=O)N[C@@H](C)C(=O)N[C@@H](Cc1ccccc1)C(=O)O)[C@@H](C)O [Epitope M11] (H-KAYNVTQAF-OH) | > 15 | 5 to 15 | 5 to 15 | < 5 | > 15 |  |  |  |  |  |
| C[C@H](NC(=O)[C@H](CO)NC(=O)[C@H](C)NC(=O)[C@H](CO)NC(=O)[C@@H]1CCCN1C(=O)[C@H](C)NC(=O)[C@@H](N)Cc1ccccc1)C(=O)N[C@@H](Cc1ccccc1)C(=O)N[C@@H](Cc1ccccc1)C(=O)O [Epitope M16] (H-FAPSASAFF-OH; N-terminus and C-terminus assumed) | < 5 | 5 to 15 | > 15 | > 15 | 5 to 15 | 37 | 81.4 |  |  |  |
| CC(C)C[C@H](NC(=O)[C@@H](NC(=O)[C@@H](NC(=O)CNC(=O)[C@H](CCC(N)=O)NC(=O)[C@@H]1CCCN1C(=O)[C@H](CC(C)C)NC(=O)[C@H](CCC(N)=O)NC(=O)[C@H](CC(C)C)NC(=O)[C@@H](N)C(C)C)[C@@H](C)O)[C@@H](C)O)C(=O)O [Epitope M18] (H-VLQLPQGTTL-OH; N-terminus and C-terminus assumed) |  | 5 to 15 |  | > 15 |  |  |  | > 15 | > 15 |  |
| CSCC[C@H](NC(=O)[C@H](CO)NC(=O)[C@H](Cc1ccccc1)NC(=O)[C@H](Cc1c[nH]cn1)NC(=O)[C@H](CCCCN)NC(=O)[C@H](CCCNC(=N)N)NC(=O)[C@H](CC(C)C)NC(=O)[C@H](Cc1ccc(O)cc1)NC(=O)[C@H](C)NC(=O)[C@@H](N)Cc1ccc(O)cc1)C(=O)O [Epitope M26] (H-YAYLRKHFSM-OH; N-terminus and C-terminus assumed) | 5 to 15 |  | > 15 | > 15 |  | 8.9 | 33.9 |  | 5 to 15 | > 15 |
| CC[C@H](C)[C@H](NC(=O)[C@H](CCCNC(=N)N)NC(=O)[C@H](CC(C)C)NC(=O)[C@H](CCSC)NC(=O)[C@H](CC(N)=O)NC(=O)[C@@H]1CCCN1C(=O)[C@H](CCSC)NC(=O)[C@H](C)NC(=O)[C@@H](N)CCCNC(=N)N)C(=O)O [Epitope M30] (H-RAMPNMLRI-OH; N-terminus and C-terminus assumed) |  | 5 to 15 | > 15 | < 5 | > 15 |  |  | > 15 |  |  |
| CC(C)C[C@H](NC(=O)[C@H](C)NC(=O)[C@H](C)NC(=O)CNC(=O)[C@H](C)NC(=O)CNC(=O)[C@H](Cc1ccccc1)NC(=O)[C@@H](NC(=O)[C@@H](N)Cc1c[nH]c2ccccc12)[C@@H](C)O)C(=O)O [Epitope M33, WTFGAGAAL] (H-WTFGAGAAL-OH; N-terminus and C-terminus assumed) | 5 to 15 |  |  |  |  |  |  |  | > 15 |  |
| CC[C@H](C)[C@H](NC(=O)[C@@H]1CCCN1C(=O)[C@@H](NC(=O)[C@H](Cc1c[nH]cn1)NC(=O)[C@H](CCCCN)NC(=O)[C@H](CO)NC(=O)[C@H](Cc1ccc(O)cc1)NC(=O)[C@@H](NC(=O)[C@@H](N)CCCCN)[C@@H](C)CC)[C@@H](C)O)C(=O)O [Epitope M34] (H-KIYSKHTPI-OH; N-terminus and C-terminus assumed) | > 15 | < 5 |  |  | 5 to 15 | 77.4 | 91.2 |  | > 15 |  |
| CC[C@H](C)[C@H](NC(=O)[C@@H](NC(=O)CNC(=O)[C@H](CC(N)=O)NC(=O)[C@H](CO)NC(=O)[C@H](CC(=O)O)NC(=O)[C@H](C)NC(=O)[C@@H](N)CCSC)[C@@H](C)O)C(=O)N[C@H](C(=O)N[C@H](C(=O)O)C(C)C)[C@@H](C)O [Epitope M48] (H-MADSNGTITV-OH; N-terminus and C-terminus assumed) |  | > 15 |  | > 15 |  |  |  |  | 5 to 15 |  |
| CC[C@H](C)[C@H](NC(=O)[C@H](CCC(N)=O)NC(=O)[C@H](CC(C)C)NC(=O)[C@H](C)NC(=O)[C@H](C)N)C(=O)N1CCC[C@H]1C(=O)N[C@@H](Cc1ccccc1)C(=O)N[C@@H](C)C(=O)N[C@@H](CCSC)C(=O)O [Epitope M66] (H-AALQIPFAM-OH; N-terminus and C-terminus assumed) |  |  |  | 5 to 15 |  |  |  |  | < 5 |  |
| CC(C)C[C@H](NC(=O)[C@@H](NC(=O)[C@H](CCCNC(=N)N)NC(=O)[C@H](CO)NC(=O)[C@@H](NC(=O)[C@H](C)NC(=O)[C@@H](N)C(C)C)[C@@H](C)O)[C@@H](C)O)C(=O)N[C@@H](CO)C(=O)N[C@@H](Cc1ccc(O)cc1)C(=O)O [Epitope M72] (H-VATSRTLSY-OH; N-terminus and C-terminus assumed) | > 15 |  | > 15 |  | > 15 |  |  | < 5 | > 15 |  |
| C[C@@H](O)[C@H](NC(=O)[C@H](CCC(N)=O)NC(=O)[C@H](CC(=O)O)NC(=O)[C@H](Cc1c[nH]c2ccccc12)NC(=O)[C@H](Cc1ccc(O)cc1)NC(=O)[C@H](CCCCN)NC(=O)[C@H](Cc1ccccc1)NC(=O)[C@@H](N)Cc1ccc(O)cc1)C(=O)N[C@@H](Cc1ccc(O)cc1)C(=O)O [Epitope M122] (H-YFKYWDQTY-OH; N-terminus and C-terminus assumed) | > 15 | > 15 | 5 to 15 | > 15 |  |  |  |  | > 15 |  |
